From patent US20210371379A1, “NOVEL SALT OF 4-({(4S)-1-(4-CARBAMIMIDOYLBENZOYL)-4-[4(METHYLSULFONYL)PIPERAZIN-1-YL]-L-PROLYL}AMINO) BENZOIC ACID AND NOVEL CRYSTAL FORM THEREOF” (ONO PHARMACEUTICAL CO., LTD., priority 2018, published 2021)

How the values were obtained:
Assay type in all cases: physicochemical
[1] = Hygroscopicity evaluation (isotherm adsorption curve); settings: 25° C., relative humidity in the range of 5% to 70%
Procedure: The isotherm adsorption curve was measured under the following conditions. Ditosylate, monoacetate and pentahydrate of Compound A were measured under Condition 1, and besylate of […] was measured under Condition 2.
Measurement temperature: 25° C.
Measurement range: Relative humidity of 5 to 95%
Measurement interval: Relative humidity of 5%
Measurement range: Relative humidity of 0 to 95%

[2] = Chemical stability test: residual rate measurement by HPLC after storage; settings: for Residual rate (%): versus sample stored at −20° C.
Procedure: The chemical stability of crystals of ditosylate, dibesylate, pentahydrate and monoacetate of Compound A was measured by the following method and conditions.
About 1.5 to 3 mg of a test compound was weighed in a lab tube and stored under the following conditions.
After storage, the residual rate (%) of the stored sample under each condition was calculated by HPLC based on the area percentage of main medicine of the sample stored at −20° C. In addition, appearance was visually observed and compared with the sample stored at −20° C. […]
Comparison object of each sample was stored at −20° C.
An evaluation sample (0.8 mg) was dissolved in a mixed solution of acetonitrile/100 mM NaClO4 […] about 0.8 mL (sample concentration: 1.0 mg/mL) acetonitrile/100 mmol/L NaClO4 aq. (pH3.0) (3/1) to prepare a solution of 1.0 mg/mL (concentration as salt).
Detector: Ultraviolet absorptiometer (measurement wavelength: 265 nm)
Column: SPELCO Ascentis Express (150 mm×4.6 mm, S-2.7 μm)
Column temperature: 25° C.
Mobile phase: Solution A: 100 mmol/L NaClO4 aq. (pH 3.0), Solution B: acetonitrile
Area measurement range: 34.6 minutes

[3] = Physical stability: powder X-ray measurement before and after storage; settings: 25° C.-60% RH, 2 months
Procedure: The physical stability of monoacetate and ditosylate of Compound A was measured by the following method and conditions.
Test compounds were respectively weighed in a lab tube at about 20 mg for monoacetate and about 40 mg for ditosylate, and stored under the following conditions.
Device: D8 DISCOVER with GADDS manufactured by BRUKER axs

[4] = crystals stored at 40° C.-75% RH (opened) for 2 months
[5] = crystals stored at 60° C. for 1 month
[6] = crystals stored at 40° C. for 2 months

| weight gain [1] | Residual rate (%) [2, 4] | Residual rate (%) [2, 5] | Residual rate (%) [2, 6] | weight gain ([1]; listed as monoacetate of Compound A, monoacetate) | Residual rate (%) ([2]; crystals stored at 40° C. for 2 months, monoacetate) | Residual rate (%) ([2]; crystals stored at 40° C.-75% RH (opened) for 2 months, monoacetate) | Residual rate (%) ([2]; crystals stored at 60° C. for 1 month, monoacetate) | weight gain ([1]; listed as pentahydrate of Compound A) | residual rate ([2]; under the conditions of 40° C.-75%) | Compound | change of powder X-ray diffraction spectrum before and after storage [3] |
| --- | --- | --- | --- | --- | --- | --- | --- | --- | --- | --- | --- |
| 1.9 wt % | 99.5% | 100% | – | – | – | – | – | – | – | CS(=O)(=O)N1CCN([C@H]2C[C@@H](C(=O)Nc3ccc(C(=O)O)cc3)N(C(=O)c3ccc(C(=N)N)cc3)C2)CC1.O=S(=O)(O)c1ccccc1 [Dibesylate, 4-({(4S)-1-(4-Carbamimidoylbenzoyl)-4-[4-(methylsulfonyl)piperazin-1-yl]-L-prolyl}amino) benzoic acid dibenzenesulfonate] | – |
| 1.5 wt % | 99.3% | 100% | 100% | – | – | – | – | – | – | CS(=O)(=O)N1CCN([C@H]2C[C@@H](C(=O)Nc3ccc(C(=O)O)cc3)N(C(=O)c3ccc(C(=N)N)cc3)C2)CC1.Cc1ccc(S(=O)(=O)O)cc1 [Ditosylate, 4-({(4S)-1-(4-Carbamimidoylbenzoyl)-4-[4-(methylsulfonyl)piperazin-1-yl]-L-prolyl}amino) benzoic acid di(4-toluenesulfonate)] | no significant peak change was recognized |
| – | – | – | – | 6.4 wt % | 99% | 95% | 97.5% | – | – | CS(=O)(=O)N1CCN([C@H]2C[C@@H](C(=O)Nc3ccc(C(=O)O)cc3)N(C(=O)c3ccc(C(=N)N)cc3)C2)CC1 [Monoacetate, 4-({(4S)-1-(4-Carbamimidoylbenzoyl)-4-[4-(methylsulfonyl)piperazin-1-yl]-L-prolyl}amino) benzoic acid monoacetate] | change in the spectra was recognized |
| – | 37% | 23.1% | 36.3% | – | – | – | – | 12.2 wt % | reduced residual rate | CS(=O)(=O)N1CCN([C@H]2C[C@@H](C(=O)Nc3ccc(C(=O)O)cc3)N(C(=O)c3ccc(C(=N)N)cc3)C2)CC1 [Pentahydrate, 4-({(4S)-1-(4-Carbamimidoylbenzoyl)-4-[4-(methylsulfonyl)piperazin-1-yl]-L-prolyl}amino) benzoic acid pentahydrate] | – |
